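Assay format: 96-well plates, 48-hour exposure. GI50 marks 50% less growth.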 Active and inactive are the calls of the source. No stated cut-off is given here; in the data, active = GI50 up to about 1.1 µM and inactive = higher.
How the values were obtained:
Assay in all cases: NCI tumour cell line growth inhibition, 48 h
[1] = system: HCC 2998
[2] = system: HCT-116
[3] = system: HL-60
[4] = system: HOP-62
[5] = system: HOP-92
[6] = system: Hs-578T
[7] = system: K562
[8] = system: M14
[9] = system: MDA-MB-435
[10] = system: NCI/ADR-RES
[11] = system: OVCAR-3
[12] = system: OVCAR-8
[13] = system: RXF 393
[14] = system: SK-MEL-28
[15] = system: SN12C
[16] = system: SW-620
[17] = system: T47D
[18] = system: Malme-3M
[19] = system: NCI-H522
[20] = system: SF-268

Measured: GI50

O=C1Nc2ccc([N+](=O)[O-])cc2/C1=N/NC(=S)Nc1ccccc1
inactive: [1] 3.6 µM | [2] 4.05 µM | [3] 5.21 µM | [4] 8.57 µM | [5] 2.92 µM | [6] 35.7 µM | [7] 4.92 µM | [8] 6.01 µM | [9] 10.1 µM | [10] 2.47 µM | [11] 10 µM | [12] 5.16 µM | [13] 11.6 µM | [14] 16.5 µM | [15] 5.9 µM | [16] 8.99 µM | [17] 4.71 µM

COC(=O)c1c(C#C[Si](C)(C)C)c(C#C[Si](C)(C)C)c(C#C[Si](C)(C)C)c(C#C[Si](C)(C)C)c1C(=O)OC
inactive: [1] > 100 µM | [2] > 100 µM | [3] > 100 µM | [5] > 100 µM | [6] > 100 µM | [7] > 100 µM | [8] > 100 µM | [9] > 100 µM | [18] > 100 µM | [19] > 100 µM | [10] > 100 µM | [11] > 100 µM | [12] > 100 µM | [13] > 100 µM | [20] > 100 µM | [14] > 100 µM | [15] > 100 µM | [16] > 100 µM | [17] > 100 µM

COc1cc(S(=O)(=O)Nc2ccc(-c3csc(N4C(=O)C(Cl)C4c4cccs4)n3)cc2)ccc1Cl (stereo unspecified)
inactive: [1] 50.5 µM | [2] 98.9 µM | [3] 39.1 µM | [4] > 100 µM | [5] 19.7 µM | [6] > 100 µM | [7] 31.8 µM | [8] > 100 µM | [9] 72.9 µM | [18] > 100 µM | [19] 4.35 µM | [10] > 100 µM | [11] > 100 µM | [12] 70.6 µM | [13] 23.5 µM | [20] 39 µM | [14] > 100 µM | [15] 82.6 µM | [16] 43.4 µM | [17] 54.6 µM

CC1(C)OCC([C@H]2O[C@@H](CC(=S)NCCCCCCCCCCCCNC(=S)C[C@H]3O[C@@H](C4COC(C)(C)O4)[C@H]4OC(C)(C)O[C@H]43)[C@H]3OC(C)(C)O[C@H]32)O1 (stereo partly specified)
inactive: [1] 75.7 µM | [2] 35.7 µM | [3] 30.4 µM | [4] > 100 µM | [5] > 100 µM | [6] > 100 µM | [7] 39.4 µM | [8] 52.5 µM | [9] 70.8 µM | [19] 45.3 µM | [10] 25.9 µM | [11] 74.5 µM | [12] 53.5 µM | [13] > 100 µM | [20] > 100 µM | [14] > 100 µM | [16] > 100 µM | [17] 19.2 µM

O=C(CC(C(=O)c1ccco1)c1ccsc1)c1ccco1 (stereo unspecified)
inactive: [1] > 100 µM | [2] > 100 µM | [3] 89.7 µM | [4] > 100 µM | [5] > 100 µM | [6] > 100 µM | [7] 78 µM | [8] > 100 µM | [9] > 100 µM | [19] 76.9 µM | [10] 38.6 µM | [11] 91.2 µM | [12] > 100 µM | [13] 48.9 µM | [20] > 100 µM | [14] > 100 µM | [15] > 100 µM | [16] > 100 µM | [17] 17.3 µM

Cc1nc2c(nc1C)-c1c(c3c(n1Cc1ccccc1)C(=O)CCC3)C(=O)C2=O
inactive: [1] 2.86 µM | [2] 4.84 µM | [3] 3.09 µM | [4] 8.79 µM | [5] 3.4 µM | [6] 4.2 µM | [7] 2.96 µM | [8] 4.42 µM | [9] 2.31 µM | [18] 3.35 µM | [19] 2.86 µM | [10] 3.84 µM | [11] 2.38 µM | [12] 3.09 µM | [20] 2.21 µM | [14] 2.02 µM | [15] 2.42 µM | [16] 3.07 µM | [17] 4.06 µM

Cn1ccnc1SC(F)(F)c1nc2ccccc2o1
inactive: [1] > 100 µM | [2] > 100 µM | [4] > 100 µM | [5] > 100 µM | [6] > 100 µM | [7] > 100 µM | [8] > 100 µM | [9] > 100 µM | [18] > 100 µM | [19] > 100 µM | [10] > 100 µM | [11] > 100 µM | [12] > 100 µM | [13] > 100 µM | [20] > 100 µM | [14] > 100 µM | [15] > 100 µM | [16] > 100 µM | [17] > 100 µM

NC(=O)NNc1nc2ccccc2c(=O)n1NC(=O)C(=O)Nc1ccc(Cl)cc1Cl
inactive: [1] > 100 µM | [2] > 100 µM | [4] > 100 µM | [5] > 100 µM | [6] > 100 µM | [7] > 100 µM | [8] > 100 µM | [9] > 100 µM | [18] > 100 µM | [19] > 100 µM | [10] > 100 µM | [11] > 100 µM | [12] > 100 µM | [13] > 100 µM | [20] > 100 µM | [14] > 100 µM | [15] > 100 µM | [16] > 100 µM | [17] > 100 µM

N=C1N(/N=C/c2ccccn2)/C(=N\c2ccccc2)C(=S)N1c1ccccc1
inactive: [1] 10.2 µM | [2] 2.87 µM | [3] 1.85 µM | [4] 10.2 µM | [5] 10.8 µM | [6] 11.5 µM | [7] 3.33 µM | [9] 5.41 µM | [18] 10.9 µM | [19] 1.92 µM | [10] 2.83 µM | [12] 3.6 µM | [13] 3.15 µM | [20] 5.12 µM | [14] 11 µM | [15] 5.31 µM | [16] 3.47 µM | [17] 5.5 µM

CC(=O)NC1C(OCc2ccccc2)OC(CO)C(O)C1OCC(=O)N[C@@H](C)C(=O)N[C@H](CCC(=O)NCCNc1ccc([N+](=O)[O-])c2[nH]c3ccccc3c(=O)c12)C(N)=O (stereo partly specified)
inactive: [1] 10.9 µM | [2] 6.56 µM | [3] 54.7 µM | [4] 36.3 µM | [5] 21.6 µM | [6] 71.9 µM | [7] 58.9 µM | [8] 60.3 µM | [9] 22.4 µM | [18] 84.5 µM | [19] 7.62 µM | [10] 21.6 µM | [11] 36.7 µM | [12] 18.2 µM | [14] 33.2 µM | [15] 27.4 µM | [16] 7.74 µM | [17] 57 µM

CC1CC(=O)N(N(C)C)C2(C#N)C(=O)N=C(N)C12C#N (stereo unspecified)
inactive: [1] > 100 µM | [2] > 100 µM | [3] 19.3 µM | [4] > 100 µM | [5] > 100 µM | [6] > 100 µM | [7] 27.2 µM | [8] > 100 µM | [9] > 100 µM | [18] > 100 µM | [19] 32.4 µM | [10] > 100 µM | [12] > 100 µM | [13] > 100 µM | [20] > 100 µM | [15] > 100 µM | [16] 35.4 µM | [17] > 100 µM

CC(C)(C)OC(=O)N(CCCCNC(=O)OCc1ccccc1)CCCNC(=O)OCc1ccccc1
inactive: [1] 98.6 µM | [2] 41.8 µM | [3] 5.28 µM | [4] > 100 µM | [5] 23.4 µM | [6] > 100 µM | [7] 23.3 µM | [8] 51.8 µM | [9] 35.8 µM | [19] 4.06 µM | [10] 8.59 µM | [11] > 100 µM | [12] 32.4 µM | [13] 30 µM | [20] > 100 µM | [14] > 100 µM | [15] 53.3 µM | [16] 71 µM | [17] 5.19 µM

CN(C)/C=C/C=C(/C=N/S(=O)(=O)C(F)(F)F)C1C=CN(S(=O)(=O)C(F)(F)F)C=C1
inactive: [1] 28.1 µM | [2] 29.2 µM | [3] 19.8 µM | [4] 39.4 µM | [5] 32.7 µM | [6] 69.2 µM | [7] 37.8 µM | [8] 36.1 µM | [9] 25.8 µM | [18] 32 µM | [19] 21.6 µM | [10] 30.3 µM | [11] 32.4 µM | [12] 37.7 µM | [20] 48.5 µM | [14] 91.8 µM | [15] 40.6 µM | [16] 38.1 µM | [17] 23.4 µM

O=C(O)CCC(=O)OC1N=C(c2ccccc2Cl)c2cc([N+](=O)[O-])ccc2NC1=O (stereo unspecified)
inactive: [1] > 100 µM | [2] 20.5 µM | [3] 38.5 µM | [4] 70.6 µM | [5] 69.2 µM | [6] > 100 µM | [8] > 100 µM | [9] > 100 µM | [18] > 100 µM | [19] 55.1 µM | [10] > 100 µM | [11] 32.7 µM | [12] 39 µM | [13] 47.3 µM | [20] 67.5 µM | [14] 60.1 µM | [15] 46.5 µM | [16] 26.1 µM | [17] 81.3 µM

Reference: ChEMBL document CHEMBL1201862, “PubChem BioAssay data set” (2004)
